In patent publication US9625458B2, “Biosensor” (priority 2002, dated 2017):

Legend:
[1] = biological target: T1, E. coli arabinose binding protein variant C64A/L253C, fluorophore conjugate (Escherichia coli, UniProt P02924, C87A/L276C); experiment: Fluorimetric titration of fluorophore conjugates
T1 construct: initiator methionine (N); Gly-Ser-Gly-(His)n or Gly-Ser-(His)n (n = 5, 6 or 10) (C); made in house; host or cells: E. coli BL21-DE3
Excerpt: (§1) Molecular Cloning. […] Amplified products were cloned into one of the protein expression vectors pAED4 (Doering, “Functional and structural studies of a small f-actin binding domain” in Ph.D. thesis, Massachusetts Institute of Technology, 1992); pKK223-3 (Brosius & Holy, Proc. Natl. Acad. Sci. USA 81:6929-6933, 1984); or pET vectors (Studier et al., Meth. Enzymol. 185:60-89, 1990) (Novagen). N-terminal oligonucleotide primers were designed to clone only the processed periplasmic form, deleting the signal sequence. The C-terminal primer was designed to append the sequence Gly-Ser-Gly-(His)n or Gly-Ser-(His)n, where n=5, 6, or 10. Two tandem stop codons (TAATGA) follow the last His codon. […] Single amino acid substitutions were generated by overlapping PCR mutagenesis (Ho et al., Gene 77:51-59, 1989). All clones and mutations were confirmed by nucleotide sequencing. In the case of arabinose BP, the single cysteine in the wild type sequence was replaced by alanine to eliminate the possibility of reporter group conjugation to this thiol (Miller et al., J. Biol. Chem. 254:7521-7528, 1979). Additionally the sequence of Fe(III) BP was mutated by substitution of Glu57 with Asp to raise the Kd to a concentration range conveniently measured using Fe(III) citrate.
(§2) Fluorophore conjugation to cysteine-substituted bPBPs. Thiol-reactive fluorophores obtained from Molecular Probes (Eugene, Oreg.) were 5-iodoacetamidofluorescein (fluorescein); N-(1-pyrene) iodoacetamide (pyrene); N,N′-dimethyl-N-(iodoacetyl)-N′-(7-nitrobenz-2-oxa-1,3-diazol-4-yl)ethylenediamide (NBD); N-((2-(iodoacetoxy)ethyl)-N-methyl)amino-7-nitrobenz-2-oxa-1,3-diazole (NBDE); and 6-acryloyl-2-dimethylaminonaphthalene (acrylodan). The styryl and naphthyl dyes JPW4039, JPW4042, and JPW4045 (FIG. 3) were synthesized at the University of Connecticut. All fluorophore conjugation steps were typically carried out at room temperature. To protein at a concentration of 100 μM was added tris-(2-carboxyethyl)phosphine HCl to a five-fold molar excess to reduce intermolecular disulfide bonds. A thiol-reactive fluorophore (20 to 25 mM in acetonitrile or dimethyl sulfoxide) was added in small aliquots to a five-fold molar excess over protein. Conjugation proceeded in the dark at room temperature for 4 hours, or overnight at 4° C. Separation of protein from unreacted fluorophore was achieved by exhaustive dialysis or by size-exclusion chromatography. The efficiency of reporter group attachment was assessed by determination of unreacted thiol with Ellman's reagent (Ellman, Arch. Biochem. Biophys. 74:443-450, 1958) or by measuring the ratio of fluorophore to protein from absorbance spectra of the purified conjugate.
(§3) Fluorimetry. All measurements were conducted with an SLM Aminco-Bowman series 2 fluorimeter, with sample stirring at 25° C. Fluorescence emission spectra were acquired with excitation and emission slit widths of 4 and 8 nm, respectively. Photomultiplier tube potential was maintained between 400 and 800 volts. Protein concentrations were in the range of 50 to 1000 nM. Fluorophore-specific excitation was at the following approximate wavelengths: tryptophan, 290 nm; acrylodan, 390 nm; fluorescein, 485 nm; pyrene, 340 nm; NBD and NBDE, 490 nm; JPW4039, 485 nm; JPW4042, 470 nm; JPW4045, 470 nm.
(§4) Corrections were made for dilution of the protein and for background signal from buffer. Binding curves were fit to binding isotherms using equation 3 or 4, as appropriate.
(§5) Analyte affinity measurements. […] The emission wavelength monitored was that of maximum difference in intensity between the ligand-free and bound states. For each conjugate, fluorescence intensiometric observations were fit to a hyperbolic binding isotherm for a two-state model (Marvin et al., Proc. Natl. Acad. Sci. USA 94:4366-4371, 1997): […]

[2] = biological target: T2, E. coli arabinose binding protein variant C64A/L298C, fluorophore conjugate (Escherichia coli, UniProt P02924, C87A/L321C); experiment: Fluorimetric titration of fluorophore conjugates; conditions: allosteric site
T2 construct: initiator methionine (N); Gly-Ser-Gly-(His)n or Gly-Ser-(His)n (n = 5, 6 or 10) (C); made in house; host or cells: E. coli BL21-DE3
Excerpt: as §1, §2, §3, §4, §5

[3] = biological target: T3, E. coli arabinose binding protein variant C64A/F23C, fluorophore conjugate (Escherichia coli, UniProt P02924, C87A/F46C); experiment: Fluorimetric titration of fluorophore conjugates; conditions: allosteric site
T3 construct: initiator methionine (N); Gly-Ser-Gly-(His)n or Gly-Ser-(His)n (n = 5, 6 or 10) (C); made in house; host or cells: E. coli BL21-DE3
Excerpt: as §1, §2, §3, §4, §5

[4] = biological target: T4, E. coli arabinose binding protein variant C64A/K301C, fluorophore conjugate (Escherichia coli, UniProt P02924, C87A/K324C); experiment: Fluorimetric titration of fluorophore conjugates
T4 construct: initiator methionine (N); Gly-Ser-Gly-(His)n or Gly-Ser-(His)n (n = 5, 6 or 10) (C); made in house; host or cells: E. coli BL21-DE3
Excerpt: as §1, §2, §3, §4, §5

[5] = biological target: T5, E. coli arabinose binding protein variant C64A/D257C, fluorophore conjugate (Escherichia coli, UniProt P02924, C87A/D280C); experiment: Fluorimetric titration of fluorophore conjugates; conditions: allosteric site
T5 construct: initiator methionine (N); Gly-Ser-Gly-(His)n or Gly-Ser-(His)n (n = 5, 6 or 10) (C); made in house; host or cells: E. coli BL21-DE3
Excerpt: as §1, §2, §3, §4, §5

[6] = biological target: T6, E. coli arabinose binding protein C64A mutant (Escherichia coli, UniProt P02924, C87A); experiment: Arabinose affinity of unconjugated arabinose BP C64A
T6 construct: initiator methionine (N); Gly-Ser-Gly-(His)n or Gly-Ser-(His)n (n = 5, 6 or 10) (C); made in house; host or cells: E. coli BL21-DE3
Excerpt: (§6) Molecular Cloning. […] All clones and mutations were confirmed by nucleotide sequencing.
(§7) Cysteine point mutations were introduced by the PCR overlap method (Ho et al., Gene 77:51-59, 1989). Mutant proteins typically expressed as well as the wild type protein. […] In the case of Fe(III) BP, all mutations were constructed in the E57D background. […] This permitted straightforward determination of Fe(III) affinity by direct titration with Fe(III) citrate at nanomolar concentrations of Fe(III) BP.
(§8) The effect on dissociation constants is determined not only by the attachment site, but also by the nature of the attached fluorophore, as illustrated for arabinose BP. Dissociation constants for arabinose of the five cysteine-substitution mutants (all with the C64A mutation), measured by tryptophan fluorescence, are 5.0 μM (F23C), 3.2 μM (L253C), 3.4 μM (D257C), 7.6 μM (L298C), and 1.6 μM (K301C).

[7] = biological target: T7, E. coli arabinose binding protein variant C64A/L253C (Escherichia coli, UniProt P02924, C87A/L276C); experiment: Arabinose affinity by tryptophan fluorescence
T7 construct: initiator methionine (N); Gly-Ser-Gly-(His)n or Gly-Ser-(His)n (n = 5, 6 or 10) (C); made in house; host or cells: E. coli BL21-DE3
Excerpt: as §6, §7, §8

[8] = biological target: T8, E. coli arabinose binding protein variant C64A/K301C (Escherichia coli, UniProt P02924, C87A/K324C); experiment: Arabinose affinity by tryptophan fluorescence
T8 construct: initiator methionine (N); Gly-Ser-Gly-(His)n or Gly-Ser-(His)n (n = 5, 6 or 10) (C); made in house; host or cells: E. coli BL21-DE3
Excerpt: as §6, §7, §8

[9] = biological target: T9, E. coli arabinose binding protein variant C64A/F23C (Escherichia coli, UniProt P02924, C87A/F46C); experiment: Arabinose affinity by tryptophan fluorescence
T9 construct: initiator methionine (N); Gly-Ser-Gly-(His)n or Gly-Ser-(His)n (n = 5, 6 or 10) (C); made in house; host or cells: E. coli BL21-DE3
Excerpt: as §6, §7, §8

[10] = biological target: T10, E. coli arabinose binding protein variant C64A/L298C (Escherichia coli, UniProt P02924, C87A/L321C); experiment: Arabinose affinity by tryptophan fluorescence
T10 construct: initiator methionine (N); Gly-Ser-Gly-(His)n or Gly-Ser-(His)n (n = 5, 6 or 10) (C); made in house; host or cells: E. coli BL21-DE3
Excerpt: as §6, §7, §8

[11] = biological target: T11, E. coli arabinose binding protein variant C64A/D257C (Escherichia coli, UniProt P02924, C87A/D280C); experiment: Arabinose affinity by tryptophan fluorescence
T11 construct: initiator methionine (N); Gly-Ser-Gly-(His)n or Gly-Ser-(His)n (n = 5, 6 or 10) (C); made in house; host or cells: E. coli BL21-DE3
Excerpt: as §6, §7, §8

[12] = Acrylodan conjugate, allosteric site
[13] = JPW4039 conjugate, allosteric site

T1 sequence (P02924 24-329 C87A/L276C): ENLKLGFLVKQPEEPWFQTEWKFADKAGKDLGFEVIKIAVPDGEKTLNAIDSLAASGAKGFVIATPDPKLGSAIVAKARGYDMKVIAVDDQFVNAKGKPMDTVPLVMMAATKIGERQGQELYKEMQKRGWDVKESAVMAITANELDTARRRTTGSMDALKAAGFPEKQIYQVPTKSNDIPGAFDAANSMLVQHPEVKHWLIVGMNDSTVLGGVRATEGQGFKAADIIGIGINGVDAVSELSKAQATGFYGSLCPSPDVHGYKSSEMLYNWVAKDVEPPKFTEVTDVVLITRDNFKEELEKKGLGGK
T2 sequence (P02924 24-329 C87A/L321C): as the sequence (P02924 24-329 C87A/L276C) above, with C253L, L298C counted along it
T5 sequence (P02924 24-329 C87A/D280C): as the sequence (P02924 24-329 C87A/L276C) above, with C253L, D257C counted along it
T4 sequence (P02924 24-329 C87A/K324C): as the sequence (P02924 24-329 C87A/L276C) above, with C253L, K301C counted along it
T3 sequence (P02924 24-329 F46C/C87A): as the sequence (P02924 24-329 C87A/L276C) above, with F23C, C253L counted along it
T7 sequence (P02924 24-329 C87A/L276C): as the sequence (P02924 24-329 C87A/L276C) above
T6 sequence (P02924 24-329 C87A): as the sequence (P02924 24-329 C87A/L276C) above, with C253L counted along it
T10 sequence (P02924 24-329 C87A/L321C): as the sequence (P02924 24-329 C87A/L276C) above, with C253L, L298C counted along it
T11 sequence (P02924 24-329 C87A/D280C): as the sequence (P02924 24-329 C87A/L276C) above, with C253L, D257C counted along it
T8 sequence (P02924 24-329 C87A/K324C): as the sequence (P02924 24-329 C87A/L276C) above, with C253L, K301C counted along it
T9 sequence (P02924 24-329 F46C/C87A): as the sequence (P02924 24-329 C87A/L276C) above, with F23C, C253L counted along it

Question: Which Kd [1, 12] does the source give for `OC1OC[C@H](O)[C@H](O)[C@H]1O` (some centres unmarked) [arabinose] here?
Answer: 0.69 µM

Question: What about the Kd ([1]; Fluoresecin conjugate, allosteric site) of the same compound?
Answer: 48 µM

Question: What about the Kd [1, 13] of the same compound?
Answer: 165 µM

Question: And the Kd ([1]; L253C-NBD conjugate)?
Answer: 775 µM

Question: And the Kd ([1]; L253C-acrylodan conjugate)?
Answer: 0.7 µM

Question: What about the Kd ([1]; L253C-fluorescein conjugate) of the same compound?
Answer: ~48 µM

Question: What about the Kd ([1]; NBD conjugate, allosteric site) of the same compound?
Answer: 775 µM

Question: What about the Kd ([2]; Acrylodan conjugate) of the same compound?
Answer: 44 µM

Question: What about the Kd ([2]; JPW4039 conjugate) of the same compound?
Answer: 70 µM

Question: What about the Kd ([2]; NBD conjugate) of the same compound?
Answer: 56 µM

Question: What about the Kd ([3]; Acrylodan conjugate) of the same compound?
Answer: 3.9 µM

Question: What about the Kd ([3]; Fluorescein conjugate) of the same compound?
Answer: 3.2 µM

Question: What about the Kd ([3]; JPW4039 conjugate) of the same compound?
Answer: 38 µM

Question: And the Kd ([3]; NBD conjugate)?
Answer: 5 µM

Question: And the Kd [4, 12]?
Answer: 0.46 µM

Question: And the Kd ([4]; Fluorescein conjugate, allosteric site)?
Answer: 24 µM

Question: What about the Kd [4, 13] of the same compound?
Answer: 77 µM

Question: What about the Kd ([4]; K301C-NBD conjugate) of the same compound?
Answer: ~31 µM

Question: What about the Kd ([4]; NBD conjugate, allosteric site) of the same compound?
Answer: 31 µM

Question: And the Kd ([5]; Acrylodan conjugate)?
Answer: 56 µM

Question: What about the Kd ([5]; Fluorescein conjugate) of the same compound?
Answer: 4 µM

Question: What about the Kd ([5]; JPW4039 conjugate) of the same compound?
Answer: 90 µM

Question: What about the Kd ([5]; NBD conjugate) of the same compound?
Answer: 32 µM

Question: And the Kd [6]?
Answer: ~2.2 µM

Question: And the Kd [7]?
Answer: 3.2 µM

Question: What about the Kd [8] of the same compound?
Answer: 1.6 µM

Question: And the Kd [9]?
Answer: 5 µM

Question: What about the Kd [10] of the same compound?
Answer: 7.6 µM

Question: What about the Kd [11] of the same compound?
Answer: 3.4 µM
